According to patent publication US20230310537A1, “TREATMENT OF VASCULAR EHLERS-DANLOS SYNDROME AND RELATED SYNDROMES” (The Johns Hopkins University, priority 2020, published 2023):
Entries after “also recorded” stand apart in the source; their conditions may differ.

What was measured:
BL6 Col3a1^G938D/+ mice = assay: Kaplan-Meier survival / vascular rupture of drug-treated BL6 vEDS mice; assay type: in vivo; conditions: for elevated risk of rupture caused by the p38 inhibitor, under concomitant treatment (Kaplan-Meier survival): BL6 Col3a1^G938D/+ mice receiving SB203580 IP plus test drug (cobimetinib via drinking water, ruboxistaurin via chow) from weaning for 30 days, vs SB203580 alone
Text: Mice were maintained either on a C57BL/6J background (#000664, The Jackson Laboratory) or on a 129S6/SvEvTac background (#129SVE, Taconic Biosciences). Mice were considered to be 129S6/SvEvTac after backcrossing for a minimum of 4 generations. F1 and mixed mice were generated by interbreeding pure C57BL/6J and 129S6/SvEvTac mice. To identify the dominant genetic locus, mixed background wild-type females were bred to Col3a1^G938D/+ male mice on a pure BL6 background. Mice haploinsufficient or knockout for Map2k6 were originally obtained from the Jackson Laboratory (#008382) and backcrossed in the lab for a minimum of 10 generations. Restriction enzymes were used to detect the presence or absence of the Col3a1 mutation. The G209S mutation leads to the loss of an AvaII cut site and the G938D mutation leads to the gain of a BamHI cut site (AvaII R0153L; BamHI-HF R3136S, New England Biolabs). All mice found dead were assessed for cause of death by necropsy, noting in particular hemothorax and hemoperitoneum.
(§1) For drug trials in the Col3a1/^G938D/+ mice, mice were initiated on medication at weaning and continued until the end of the trial. Cobimetinib (GDC-0973/R0551404, Active Biochem) was dissolved in drinking water and filtered to reach a final concentration of 0.02 g/L giving an estimated dose of 2 mg/kg/day. Ruboxistaurin (LY333531 HCl, Selleck Chemicals) was mixed with powdered food (LabDiet) to give a concentration of 0.1 mg/g giving an estimated dose of 8 mg/kg/day. SB203580 (Selleck Chemicals) was administered at a dose of 5 mg/kg/d every 3 days by intraperitoneal injection. Animals receiving placebo (5% Tween in PBS) were also injected every 3 days by intraperitoneal injection.
Kaplan-Meier survival curves were compared using a log-rank (Mantel-Cox) test. Mice were censored only if unrelated to the outcome, such as for planned biochemical or histologic analysis or if the authors were directed to euthanize them by animal care staff, for malocclusion, fight wounds, or genital prolapse.

pPKCβ = assay: Western blot of pPKCβ in proximal descending aortas of treated vEDS mice; assay type: in vivo; conditions: aortas of Col3a1^G938D/+ mice, SB203580 treated vs placebo treated; p<0.01
Procedure: (§2) Protein was extracted using an automatic bead homogenizer in conjunction with a Protein Extraction Kit (Full Moon Biosystems). All protein lysis buffers contained both PhosSTOP and Complete™, Mini, EDTA-free Protease Inhibitor Cocktail (Roche). Western blotting was performed using LI-COR buffer and species appropriate secondary antibodies conjugated to IR-dye700 or IRdye-800 (LI-COR Biosciences), according to the manufacturer's guidelines and analyzed using LI-COR Odyssey. The following primary antibodies were used: anti-β-Actin (8H10D10) (Cell Signaling Technology, 3700), anti-phospho ERK1/2 (Cell Signaling Technology, 4370), anti-PKCβ (phospho 5660) (Abcam, 75837), anti-phospho p38 (Cell Signaling Technology, 4511).
as §1, with “Animals receiving placebo (5% Tween in PBS) were also injected every 3 days by intraperitoneal injection.” left out

pERK1/2 = assay: Western blot of pERK1/2 in proximal descending aortas of treated vEDS mice; assay type: in vivo; conditions: aortas of Col3a1^G938D/+ mice, SB203580 treated vs placebo treated; p<0.01
Procedure: as §2
as §1, with “Animals receiving placebo (5% Tween in PBS) were also injected every 3 days by intraperitoneal injection.” left out

[1] = test system: severe (Col3a1 G938D/+) and mild (Col3a1^G209S/+) mouse models of vEDS; conditions: either vEDS mouse model; interventions that inhibit PKC/ERK activation; cited from earlier work
MFS mice = conditions: therapies that attenuate TGF-β signaling and related pathways; cited from earlier work

Compound | elevated risk of rupture caused by the p38 inhibitor, under concomitant treatment (Kaplan-Meier survival) (BL6 Col3a1^G938D/+ mice) | aortic disease rupture risk [1] | other results
C[S+]([O-])c1ccc(-c2nc(-c3ccncc3)c(-c3ccc(F)cc3)[nH]2)cc1 (centres unmarked) [SB203580] | – | – | rate of death / vascular rupture risk (Kaplan-Meier survival vs placebo) (BL6 Col3a1^G938D/+ mice; BL6 Col3a1^G938D/+ mice, IP injection every 3 days starting at weaning, continuing for 40 days, Log-Rank p<0.01): significantly increased the rate of death; also recorded: increases vascular rupture risk; PKC activation (pPKCβ levels normalized to β-actin) (pPKCβ): increase; ERK activation (pERK1/2 levels normalized to β-actin) (pERK1/2): increase
O=C(c1ccc(F)c(F)c1Nc1ccc(I)cc1F)N1CC(O)([C@@H]2CCCCN2)C1 [cobimetinib] | rescued | rescue aortic disease rupture risk | –
CCCCc1nc(Cl)c(CO)n1Cc1ccc(-c2ccccc2-c2nn[nH]n2)cc1 [losartan] | – | – | aortic disease (MFS mice): suppress aortic disease
CN(C)C[C@@H]1CCn2cc(c3ccccc32)C2=C(C(=O)NC2=O)c2cn(c3ccccc23)CCO1 [ruboxistaurin] | rescued | rescue aortic disease rupture risk | –
